{"source": "patent US20150080380A1", "about": "“Therapeutic Uses” (GLAXOSMITHKLINE INTELLECTUAL PROPERTY DEVELOPMENT LIMITED, priority 2012, published 2015)", "system": "remyelination in cuprizone/rapamycin-induced demyelination", "experiment": "Mouse cuprizone/rapamycin-induced demyelination model (Black-gold II staining)", "assay_type": "in vivo, C57BL/6 mice", "conditions": "30 mg/kg orally b.i.d. 9 days, n=7, P<0.05", "method": "The ability of Example compound 2 to enhance in vivo remyelination was determined with the mouse cuprizone/rapamycin-induced demyelination model.\nThe cuprizone plus rapamycin model was conducted with the protocol as follows: rapamycin was dissolved in 100% ethanol and stored at −20° C. until use. Immediately before injection, the rapamycin was diluted in vehicle solution to get a final concentration in 5% PEG-400, 5% Tween 80, and 4% ethanol. The C57BL/6 mice at age of 8 weeks were fed with powder mouse food mixed freshly with 0.2% cuprizone (w/w) and received daily intraperitoneal injection of rapamycin (10 mg/kg body weight) for 5 weeks to induce demyelination, then animals were allowed to recover (removal of cuprizone from the diet and rapamycin injection) and administrated with Example compound 2, at 30 mg/kg body weight orally, b.i.d. for an additional 9 days prior to sacrifice. The brain samples were collected for pathologic analysis. […]\nMice were deeply anesthetized and quickly perfused with 0.9% saline via the left cardiac ventricle to drain out blood. […] The sections were monitored to determine the extent of staining. […]\nImage-Pro 6.3 software (Media Cybernetics, USA) was used for subsequent quantitative evaluation. […] For measurement of mean density, areas and IOD in central corpus callosum or cortex were calculated after all digital images were set under the same colour range. […]"}
{"smiles": "c1cc2c(cc1-c1noc(CC3CCN(C4CCC4)CC3)n1)OCO2", "note": "[Example compound 2, 3-(benzo[d][1,3]dioxol-5-yl)-5-((1-cyclobutylpiperidin-4-yl)methyl)-1,2,4-oxadiazole]", "values": [{"measurement": "mean intensity of Black-gold II staining, forebrain corpus callosum", "setting": "vehicle 14.65%", "result": "27.68±5.44", "unit": "%"}, {"measurement": "mean intensity of Black-gold II staining, forebrain cortex", "setting": "vehicle 40.79%", "result": "60.05±6.28", "unit": "%"}]}
